Assay results published in PubChem BioAssay AID504345 (Broad Institute, 2011).
Active and inactive are the calls of the source.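 How the source made its calls: active means fitted curve climbs past 10% caspase activation, relative to the positive control, at or below the top valid tested dose; inactive means the rest, including activity in the opposite direction.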

tested on: not listed separately; test: caspase activation in A1-dependent BIM-primed MEFs, dose response, Bcl2-A1 inhibitor project, cell-based, MEF A1-2A-BIM, luminescence, dry powder, set 2 (AID 504345); settings: MEF A1-2A-BIM cells, caspase 3/7 luminescence; at 35 µM (top of the series)

Row | SMILES | caspase activation
1 | CCOC(=O)N1CCN(c2c([N+](=O)[O-])c(=O)n(C)c3ccccc23)CC1 | -2.42% (inactive)
2 | O=c1oc2ccccc2c(Cl)c1[N+](=O)[O-] | -8.87% (inactive)
3 | Cc1ccc(Sc2c([N+](=O)[O-])c(=O)oc3ccccc23)cc1 | -5.88% (inactive)
4 | CCSc1c([N+](=O)[O-])c(=O)oc2ccccc12 | -6.49% (inactive)
5 | O=c1oc2ccccc2c(Nc2cc(Cl)cc(Cl)c2)c1[N+](=O)[O-] | -2.92% (inactive)
6 | Cc1ccc(Nc2c([N+](=O)[O-])c(=O)n(C)c3ccccc23)cc1 | -2.07% (inactive)
7 | Cn1c(=O)c([N+](=O)[O-])c(Oc2ccccc2)c2ccccc21 | 4.18% (inactive)
8 | Cn1c(=O)c([N+](=O)[O-])c(Nc2ccc(Cl)cc2)c2ccccc21 | -1.07% (inactive)
9 | O=c1oc2ccccc2c(Sc2ccccc2)c1[N+](=O)[O-] | -9.2% (inactive)
10 | CCOCCCNc1c([N+](=O)[O-])c(=O)n(C)c2ccccc12 | 2.29% (inactive)
11 | C/C1=C/C(=O)O[C@@H]2C[C@@H](CC[C@H](C)/C=C\CC1)O[C@@](O)(C1CSC(=O)N1)C2 (stereo partly specified) | 9.53% (inactive)
12 | O=C(Oc1cccc(/C=N/Nc2nc(Nc3ccccc3)nc(N3CCOCC3)n2)c1)c1ccco1 | 6.44% (inactive)
13 | O=[N+]([O-])c1cnc2ccccc2c1Sc1ccccc1 | -2.86% (inactive)
14 | Cc1ccc(Nc2c([N+](=O)[O-])c(=O)oc3ccccc23)cc1 | 1.97% (inactive)
15 | O=c1oc2ccccc2c(N2CCCCC2)c1[N+](=O)[O-] | -1.93% (inactive)
16 | CN1C(=O)C(C)(C)N(Cc2ccccc2)c2ccccc21 | 0.119% (inactive)
17 | Cc1ccc(Sc2cc(=O)n(C)c3ccccc23)cc1 | -11.4% (inactive)

tested on: MEF A1-2A-BIM cells, caspase 3/7 luminescence; test: as above; settings: not given

Row | SMILES | AC10
18 | Cc1ccc(Sc2c([N+](=O)[O-])cnc3ccccc23)cc1 | 8.65 µM
19 | Cc1ccc(Sc2c([N+](=O)[O-])c(=O)n(C)c3ccccc23)cc1 | 4.06 µM
20 | Cn1c(=O)c([N+](=O)[O-])c(Cl)c2ccccc21 | 0.632 µM
21 | Cn1c(=O)c([N+](=O)[O-])c(-n2cnc3ccccc32)c2ccccc21 | 9.42 µM
